Measurements from the supplement of paper PMC8960247.
Counter-ions that a name gives are not always drawn. ± gives the standard error.

How the values were obtained:
[1] = test system: 621-102 (TSC2-deficient); assay: relative viability vs DMSO (fraction); higher = less cytotoxic; settings: serum: 0.1% FBS, 72 h
[2] = test system: UMB1949 (TSC2-deficient); assay: as above; settings: serum: 0.1% FBS, 72 h;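 note: renal angiomyolipoma cell lines screened in 384-well plates, viability normalized per plate to DMSO-treated cells, each plate carrying 50 nM rapamycin and 1 µM staurosporine controls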
[3] = test system: 621-102 (TSC2-deficient); assay: relative viability vs DMSO; higher = less cytotoxic; settings: serum: 10% FBS, 72 h
[4] = test system: 621-103 (TSC2-rescued); assay: as above; settings: serum: 10% FBS, 72 h

Row | SMILES | relative viability ([1]; 0.0128 nM) | relative viability ([1]; 0.064 nM) | relative viability ([1]; 0.32 nM) | relative viability ([1]; 1.6 nM) | relative viability ([1]; 8 nM) | relative viability ([1]; 40 nM) | relative viability ([1]; 200 nM) | relative viability ([1]; 1000 nM) | relative viability ([1]; 5000 nM) | relative viability ([2]; 0.0128 nM) | relative viability ([2]; 0.064 nM) | relative viability ([2]; 0.32 nM) | relative viability ([2]; 1.6 nM) | relative viability ([2]; 8 nM) | relative viability ([2]; 40 nM) | relative viability ([2]; 200 nM) | relative viability ([2]; 1000 nM) | relative viability ([2]; 5000 nM) | relative viability ([3]; 0.0001 µM) | relative viability ([3]; 0.001 µM) | relative viability ([3]; 0.01 µM) | relative viability ([3]; 0.1 µM) | relative viability ([3]; 1 µM) | relative viability ([3]; 10 µM) | relative viability ([4]; 0.0001 µM) | relative viability ([4]; 0.001 µM) | relative viability ([4]; 0.01 µM) | relative viability ([4]; 0.1 µM) | relative viability ([4]; 1 µM) | relative viability ([4]; 10 µM)
1 | Nc1ncn([C@H]2C[C@H](O)[C@@H](CO)O2)c(=O)n1 [Decitabine] | 1 | 0.906 | 1 | 0.888 | 0.803 | 0.544 | 0.312 | 0.104 | 0.0392 | 1.08 | 1.04 | 0.99 | 0.967 | 1.08 | 0.973 | 0.635 | 0.277 | 0.155 | 104 ± 11% | 94.3 ± 5.7% | 98.29 ± 0.53% | 98.5 ± 1.5% | 80.2 ± 4.8% | 93.1 ± 7.1% | 112 ± 7.6% | 102.5 ± 0.51% | 95.65 ± 0.75% | 95.7 ± 3.1% | 85.5 ± 6.7% | 83.8 ± 3.4%
2 | CO[C@H]1C[C@@H]2CC[C@@H](C)[C@@](O)(O2)C(=O)C(=O)N2CCCC[C@H]2C(=O)O[C@H]([C@H](C)C[C@@H]2CC[C@@H](OP(C)(C)=O)[C@H](OC)C2)CC(=O)[C@H](C)/C=C(\C)[C@@H](O)[C@@H](OC)C(=O)[C@H](C)C[C@H](C)/C=C/C=C/C=C/1C [Deforolimus(MK-8669)] | 0.609 | 0.552 | 0.523 | 0.466 | 0.466 | 0.493 | 0.373 | 0.281 | 0.284 | 0.988 | 0.964 | 0.973 | 0.932 | 0.899 | 0.802 | 0.693 | 0.381 | 0.459 | 47.2 ± 1.4% | 56.5 ± 2.7% | 56.6 ± 1.4% | 51.2 ± 2% | 47.9 ± 3% | 48.8 ± 5.1% | 64.9 ± 4.2% | 64.215 ± 0.057% | 68.4 ± 2.7% | 69.1 ± 1.9% | 64.44 ± 0.59% | 67.4 ± 1.6%
3 | C=C1C[C@@H]2[C@H](CC[C@]3(C)C(=O)CC[C@@H]23)[C@@]2(C)C=CC(=O)C=C12 [Exemestane] | 1.16 | 1.08 | 1.02 | 0.948 | 1.06 | 1.11 | 1.12 | 0.94 | 0.891 | 0.936 | 0.98 | 0.996 | 1.01 | 1.08 | 1.02 | 0.927 | 0.859 | 0.773 | 130 ± 2.1% | 122 ± 5.8% | 119 ± 1.2% | 114 ± 3.2% | 113 ± 5.9% | 105 ± 3.4% | 100.1 ± 0.24% | 101 ± 2.2% | 104 ± 1.6% | 100 ± 1.2% | 97.5 ± 1.4% | 92.3 ± 2.7%
4 | Nc1ccn([C@@H]2O[C@H](CO)[C@@H](O)C2(F)F)c(=O)n1 [Gemcitabine Hydrochloride] | 1.07 | 0.96 | 0.953 | 0.0927 | 0.0285 | 0.023 | 0.0148 | 0.008 | 0.00219 | 1.06 | 1.01 | 1.02 | 0.0319 | 0.014 | 0.00861 | 0.007 | 0.00362 | 0.00263 | 108 ± 11% | 93 ± 1.5% | 52.67 ± 0.069% | 52.6 ± 0.69% | 44.7 ± 3.6% | 32.9 ± 0.75% | 103 ± 1.8% | 95.2 ± 9.7% | 51.9 ± 0.63% | 50 ± 2.1% | 41.866 ± 0.0075% | 28.5 ± 1.5%
5 | COc1ccc(S(=O)(=O)N(C(C)=O)c2ccccc2/C=C/c2cc[n+]([O-])cc2)cc1 [HMN-214] | 1.16 | 1.09 | 1.35 | 1.08 | 1.01 | 1.02 | 0.0913 | 0.0251 | 0.03 | 1.14 | 1.08 | 1.09 | 1.17 | 1.09 | 0.985 | 0.0414 | 0.0021 | 0.00207 | 112 ± 4% | 110 ± 1.5% | 96.8 ± 5.4% | 92.7 ± 1.4% | 40.4 ± 1.6% | 37 ± 2.7% | 98.78 ± 0.21% | 99.62 ± 0.55% | 100.9 ± 0.31% | 97.91 ± 0.21% | 45.5 ± 1.1% | 39.5 ± 0.96%
